# Experiments:
# human sGC = biological target: T1, human sGC (Homo sapiens, UniProt Q02153); experiment: sGC enzyme assay, fluorescence polarisation of labelled cGMP; type: biochemical; settings: human sGC 1 nM, FP assay; concentration able to increase by 5-fold basal cGMP
# T1 sequence (Q02153 1-619): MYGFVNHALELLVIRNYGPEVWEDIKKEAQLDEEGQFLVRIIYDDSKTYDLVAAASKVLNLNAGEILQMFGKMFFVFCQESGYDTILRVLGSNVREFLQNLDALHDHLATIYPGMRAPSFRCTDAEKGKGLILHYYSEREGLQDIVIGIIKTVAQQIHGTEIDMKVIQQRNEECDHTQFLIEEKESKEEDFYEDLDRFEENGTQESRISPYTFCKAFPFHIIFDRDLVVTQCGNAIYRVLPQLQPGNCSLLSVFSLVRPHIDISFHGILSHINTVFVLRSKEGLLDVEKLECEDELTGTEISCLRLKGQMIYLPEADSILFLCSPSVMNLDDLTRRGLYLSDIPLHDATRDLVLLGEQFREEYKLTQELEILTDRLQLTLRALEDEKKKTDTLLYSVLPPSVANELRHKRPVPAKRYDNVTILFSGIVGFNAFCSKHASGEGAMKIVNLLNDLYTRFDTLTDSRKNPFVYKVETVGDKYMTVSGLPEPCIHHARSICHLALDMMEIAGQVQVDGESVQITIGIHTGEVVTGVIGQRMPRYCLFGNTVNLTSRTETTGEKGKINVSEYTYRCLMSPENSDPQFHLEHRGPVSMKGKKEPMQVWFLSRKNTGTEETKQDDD
# T1 sequence (Q02108 1-690 partner): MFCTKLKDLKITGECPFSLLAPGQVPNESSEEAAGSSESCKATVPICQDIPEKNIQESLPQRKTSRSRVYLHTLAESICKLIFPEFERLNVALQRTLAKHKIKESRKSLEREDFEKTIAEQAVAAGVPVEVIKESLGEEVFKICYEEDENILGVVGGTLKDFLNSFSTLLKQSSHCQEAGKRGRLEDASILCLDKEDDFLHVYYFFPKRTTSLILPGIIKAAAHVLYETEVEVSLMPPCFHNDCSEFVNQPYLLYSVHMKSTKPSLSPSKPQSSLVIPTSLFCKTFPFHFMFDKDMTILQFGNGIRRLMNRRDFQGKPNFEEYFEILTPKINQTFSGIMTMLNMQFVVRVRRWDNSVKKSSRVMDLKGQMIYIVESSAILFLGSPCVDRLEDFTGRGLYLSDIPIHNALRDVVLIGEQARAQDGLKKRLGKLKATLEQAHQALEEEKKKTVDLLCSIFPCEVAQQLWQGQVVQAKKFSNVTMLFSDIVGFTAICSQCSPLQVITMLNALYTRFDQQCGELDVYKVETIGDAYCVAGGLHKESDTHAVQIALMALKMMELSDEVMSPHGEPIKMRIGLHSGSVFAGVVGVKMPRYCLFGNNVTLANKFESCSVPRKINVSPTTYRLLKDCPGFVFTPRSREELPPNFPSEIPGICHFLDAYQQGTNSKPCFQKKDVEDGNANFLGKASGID
# Method: The activity of soluble guanylate cyclase (sGC) was tested in an assay based on measuring the fluorescent polarisation (FP) signal of fluorescently labelled cGMP. FP increased on interaction with an anti-cGMP antibody as the motility of the molecule was reduced. Newly produced cGMP displaced the interaction giving rise to a decrease in polarisation and FP signal which was equated to enzyme activity. Compounds were incubated with human sGC, anti-cGMP antibody, the GTP substrate and fluorescently labelled cGMP. After a period of one hour the assay was stopped with the addition of EDTA and after a further hour the assay was read.
# Human sGC was thawed and resuspended in assay buffer (100 mM TRIS, 10 mM MgCl2, 0.2 mM Tween 20, pH7.4, containing 1:100 dilution of sheep anti-cGMP) to give final concentration of 1 nM in the well. A substrate solution was prepared containing GTP and 8-fluo-cGMP in de-ionized water to a final concentration of 25 μM and 50 nM respectively. Assay plates containing 5 μL of various test compounds and of a standard agonist (50 μM-50 nM) in 1% DMSO as 6 point, four fold dilutions across a 96 well plate were used in the assay. The plate also contained 6 wells of DMSO (1%) to produce high control and a cGMP standard curve (14 nM to 10 μM) to convert FP data to cGMP concentration. 25 μL of enzyme mix and 20 μl of substrate mix described above were added to each well of the plate. Samples were mixed on an orbital shaker and then incubated at room temperature for 1 hour. After this incubation period 5 μl of 0.5M EDTA was added to all wells and the plates were incubated for a further hour at room temperature prior to reading the FP signal in an appropriate reader. For data handling FP data were converted to cGMP concentrations and then fitted using ActivityBase software. The activity of a test compound was determined as the pEC500 value which is the concentration able to increase by 5-fold basal cGMP.
# intraocular pressure [1] = experiment: IOP in Japanese White rabbits after topical administration; type: in vivo; settings: 50 microliter to right eye, FIG. 1
# Method: (§1) In Japanese White rabbits, IOP was measured at baseline (immediately preceding administration of test article) and at predetermined time points (1, 2, 3, 5, 7, 9, 24 hours; additional time points were 30 and 48 hours after intravitreal administration) after topical (FIG. 1) or intravitreal (FIG. 2) administration of ophthalmic formulations containing drug, vehicle or saline using applanation tonometry. Test articles were topically administered in a 50 microliter volume to the right eye, saline in a 50 microliter volume to the contralateral, left eye. For intravitreal administration, dosing volumes were 20 microliters instead. For each animal, the difference between right eye IOP and left eye IOP was calculated as delta IOP.
# intraocular pressure [2] = experiment: IOP in Japanese White rabbits after intravitreal administration; type: in vivo; settings: FIG. 2
# Method: as §1
# intraocular pressure [3] = experiment: IOP in normal C57BL/6J mice after topical administration; type: in vivo; settings: 4 microliter to right eye, compared with latanoprost, FIG. 3
# Method: Additionally, the effect on IOP in normal mice was also assessed. In C57BL/6J mice, IOP was measured at baseline (immediately preceding administration of test article) and at predetermined time points (1, 2, 3, 4, 6, 8, 24 hours) after topical administration of ophthalmic formulations containing drug, vehicle or saline using a TonoLab. Test articles were administered in a 4 microliter volume to the right eye, saline in a 4 microliter volume to the contralateral, left eye. For each animal, the difference between right eye IOP and left eye IOP was calculated as delta IOP.
compound,measurement,setting,value
"Cc1cc(OCCCC(F)(F)F)ccc1CCc1ccccc1-c1cccc(-n2ncc(C(=O)O)c2C(F)(F)F)n1 [Example 1, 1-(6-(2-(2-methyl-4-(4,4,4-trifluorobutoxy)phenethyl)phenyl)pyridin-2-yl)-5-(trifluoromethyl)-1H-pyrazole-4-carboxylic acid]",sGC pEC500,human sGC,6.95
same,effect on IOP (delta IOP),intraocular pressure [1],dose-dependently and effectively decreased IOP
same,effect on IOP (delta IOP),intraocular pressure [2]; 20 microliters to right eye,long-lasting and effective reduction in IOP
same,duration of IOP reduction,intraocular pressure [2],at least 48 hours
same,effect on IOP (delta IOP),intraocular pressure [3],"lowered IOP with efficacy similar to latanoprost, but without the initial hypertensive spike"
"Cc1cc(OCCCn2ccc(C(F)(F)F)n2)ccc1CCc1ccccc1-c1cccc(-n2ncc(C(=O)O)c2C(F)(F)F)n1 [Example 3, 1-(6-(2-(2-methyl-4-(3-(3-(trifluoromethyl)-1H-pyrazol-1-yl)propoxy)phenethyl)phenyl)pyridin-2-yl)-5-(trifluoromethyl)-1H-pyrazole-4-carboxylic acid]",sGC pEC500,human sGC,7.88
"O=C(O)c1cnn(-c2cccc(-c3ccccc3OCc3ccc(OCCCC(F)(F)F)cc3F)n2)c1C(F)(F)F [Example 5, 1-(6-(2-((2-fluoro-4-(4,4,4-trifluorobutoxy)benzyl)oxy)phenyl)pyridin-2-yl)-5-(trifluoromethyl)-1H-pyrazole-4-carboxylic acid]",sGC pEC500,human sGC,6.88
"COCCCOc1ccc(COc2ccccc2-c2cccc(-n3ncc(C(=O)O)c3C(F)(F)F)n2)c(F)c1 [Example 6, 1-(6-(2-((2-fluoro-4-(3-methoxypropoxy)benzyl)oxy)phenyl)pyridin-2-yl)-5-(trifluoromethyl)-1H-pyrazole-4-carboxylic acid]",sGC pEC500,human sGC,7.4
"Cc1cc(OCCCC#N)ccc1COc1ccccc1-c1cccc(-n2ncc(C(=O)O)c2C(F)(F)F)n1 [Example 9, 1-(6-(2-((4-(3-cyanopropoxy)-2-methylbenzyl)oxy)phenyl)pyridin-2-yl)-5-(trifluoromethyl)-1H-pyrazole-4-carboxylic acid]",sGC pEC500,human sGC,7.73
"COCCCOc1ccc(COc2ccccc2-c2cccc(-n3ncc(C(=O)O)c3C(F)(F)F)n2)c(C)c1 [Example 10, 1-(6-(2-((4-(3-methoxypropoxy)-2-methylbenzyl)oxy)phenyl)pyridin-2-yl)-5-(trifluoromethyl)-1H-pyrazole-4-carboxylic acid]",sGC pEC500,human sGC,7.79
"Cc1cc(OCCCC(F)(F)F)ccc1COc1ccccc1-c1cccc(-n2ncc(C(=O)O)c2C(F)(F)F)n1 [Example 11, 1-(6-(2-((2-methyl-4-(4,4,4-trifluorobutoxy)benzyl)oxy)phenyl)pyridin-2-yl)-5-(trifluoromethyl)-1H-pyrazole-4-carboxylic acid]",sGC pEC500,human sGC,7.47
